# What was measured:
# [1] = test system: maximal electroshock seizure (MES) in mice; assay: Maximal electroshock seizure (MES) test, mice, i.p.; format: in vivo, mouse (male Carworth Farms #1); conditions: for P.I. (protective index, TD50/ED50): MES; for ED50: Mus musculus, ip, MES test, read-out: ED50
# Description: The (+) AAP enantiomers obtained by optical resolution of racemic AAPs and the resulting highly orally effective anticonvulsant compositions of this invention are useful in the treatment of convulsive disorders. […] A series of (+) AAP enantiomers and (-) AAP enantiomers of this invention has been evaluated for anticonvulsant activity by the intraperitoneal (i.p.) and by the oral (p.o.) route using two standard seizure models in the mouse and in the rat, the maximal electroshock seizure (MES) test and the subcutaneous pentylenetetrazol (Metrazole) seizure threshold (scMet) test. […] The following Table 2 presents the results of these anticonvulsant tests with respect to several (+) and (-) AAP enantiomeric compounds derived from optical resolution of racemic AAPs of the present invention. This Table 2 identifies the specific compounds tested by their chemical name and provides the test model, the route of administration, the animal species used, and the anticonvulsant activity and toxicity in terms of ED50 and TD50 values, (the median effective and toxic dose respectively), when intraperitoneally administered to mice, and when orally administered to rats. In mice, i.p.: All compounds are emulsified in 0.5% methylcellulose. The solvent has been tested for anticonvulsant and toxic effects and found to introduce no significant bias into the testing of anticonvulsant activity. The compounds are administered intraperitoneally in a volume of 0.01 ml/gm to male Carworth Farms #1 mice weighing about 20 gm. All compounds are tested at least at three dose levels (30, 100 and 300 mg/kg) at 30 minutes and 4 hours after their administration. The Maximal Electroshock Seizure Test (MES): Maximal electroshock seizures are elicited with a 60 Hz alternating current of 50 mA intensity in mice and about 150 mA intensity in rats (5-7 times that necessary to elicit minimal electroshock seizures), delivered for 0.2 sec via corneal electrodes. A drop of 0.9% saline is instilled in the eye prior to application of the electrodes in order to […]. Abolition of the hind limb tonic extension component of the seizure is defined as protection and results are expressed as number of animals protected/number of animals tested. The Subcutaneous Pentylenetetrazol (Metrazole) Seizure Threshold Test (scMet): A 0.5% solution of 85 mg/kg of pentylenetetrazol is administered subcutaneously in the posterior midline 30 minutes or 4 hours after drug administration to the animal. […] Anticonvulsant Quantification in Mice i.p.: The ED50 values are determined in the MES, scMet and rotorod ataxia test. To determine the ED50 values, five logarithmically spaced doses of the test compound are administered to animals (male Carworth Farms #1 mice) in groups of eight, to cover 0-100% protection, and the dose required to protect 50% of the animals (ED50) together with its 95% confidence limits, is determined graphically.
# [2] = Neurotoxicity, rotorod ataxia test, mice, i.p.; design: species or system mouse (male Carworth Farms #1); conditions: mouse, in vivo, ip, TD50
# Procedure: Neurotoxicity is determined by the rotorod ataxia test in mice and by the positional sense test and gait and stance test in the rat. The following Table 2 presents the results of these anticonvulsant tests with respect to several (+) and (-) AAP enantiomeric compounds derived from optical resolution of racemic AAPs of the present invention. This Table 2 identifies the specific compounds tested by their chemical name and provides the test model, the route of administration, the animal species used, and the anticonvulsant activity and toxicity in terms of ED50 and TD50 values, (the median effective and toxic dose respectively), when intraperitoneally administered to mice, and when orally administered to rats. In mice, i.p.: All compounds are emulsified in 0.5% methylcellulose. The solvent has been tested for anticonvulsant and toxic effects and found to introduce no significant bias into the testing of anticonvulsant activity. The compounds are administered intraperitoneally in a volume of 0.01 ml/gm to male Carworth Farms #1 mice weighing about 20 gm. All compounds are tested at least at three dose levels (30, 100 and 300 mg/kg) at 30 minutes and 4 hours after their administration. Neurotoxicity is evaluated in mice by the rotorod ataxia test. The animal is placed on a wooden rod of 1 and 1/8 diameter rotating at 6 rpm. Normal mice can remain on a rod rotating at this speed indefinitely. […] Anticonvulsant Quantification in Mice i.p.: The ED50 values are determined in the MES, scMet and rotorod ataxia test. To determine the ED50 values, five logarithmically spaced doses of the test compound are administered to animals (male Carworth Farms #1 mice) in groups of eight, to cover 0-100% protection, and the dose required to protect 50% of the animals (ED50) together with its 95% confidence limits, is determined graphically.
# [3] = test system: maximal electroshock seizure (MES) in rats; assay: Maximal electroshock seizure (MES) test, rats, p.o.; format: in vivo, rat (Sprague-Dawley); conditions: p.o.; for % protection (lowest and highest) during 4 hour period: 30 mg/kg, 5 time points 0.25-4 hours, 4 rats per point
# Description: The (+) AAP enantiomers obtained by optical resolution of racemic AAPs and the resulting highly orally effective anticonvulsant compositions of this invention are useful in the treatment of convulsive disorders. […] A series of (+) AAP enantiomers and (-) AAP enantiomers of this invention has been evaluated for anticonvulsant activity by the intraperitoneal (i.p.) and by the oral (p.o.) route using two standard seizure models in the mouse and in the rat, the maximal electroshock seizure (MES) test and the subcutaneous pentylenetetrazol (Metrazole) seizure threshold (scMet) test. […] The following Table 2 presents the results of these anticonvulsant tests with respect to several (+) and (-) AAP enantiomeric compounds derived from optical resolution of racemic AAPs of the present invention. This Table 2 identifies the specific compounds tested by their chemical name and provides the test model, the route of administration, the animal species used, and the anticonvulsant activity and toxicity in terms of ED50 and TD50 values, (the median effective and toxic dose respectively), when intraperitoneally administered to mice, and when orally administered to rats. The Maximal Electroshock Seizure Test (MES): Maximal electroshock seizures are elicited with a 60 Hz alternating current of 50 mA intensity in mice and about 150 mA intensity in rats (5-7 times that necessary to elicit minimal electroshock seizures), delivered for 0.2 sec via corneal electrodes. A drop of 0.9% saline is instilled in the eye prior to application of the electrodes in order to […]. Abolition of the hind limb tonic extension component of the seizure is defined as protection and results are expressed as number of animals protected/number of animals tested. The Subcutaneous Pentylenetetrazol (Metrazole) Seizure Threshold Test (scMet): A 0.5% solution of 85 mg/kg of pentylenetetrazol is administered subcutaneously in the posterior midline 30 minutes or 4 hours after drug administration to the animal. […] This species will be the subject of the complete anticonvulsant quantification test evaluation as described above, but after oral (gavage) administration of the candidate compound.
# [4] = Neurological deficit, positional sense test and gait and stance test, rats, p.o.; design: species or system rat (Sprague-Dawley); conditions: rat, in vivo, po
# Procedure: Neurotoxicity is determined by the rotorod ataxia test in mice and by the positional sense test and gait and stance test in the rat. The following Table 2 presents the results of these anticonvulsant tests with respect to several (+) and (-) AAP enantiomeric compounds derived from optical resolution of racemic AAPs of the present invention. This Table 2 identifies the specific compounds tested by their chemical name and provides the test model, the route of administration, the animal species used, and the anticonvulsant activity and toxicity in terms of ED50 and TD50 values, (the median effective and toxic dose respectively), when intraperitoneally administered to mice, and when orally administered to rats. […] This species will be the subject of the complete anticonvulsant quantification test evaluation as described above, but after oral (gavage) administration of the candidate compound. […] Neurological deficit in rats is examined by the positional sense test and gait and stance test. […] Inability to do so rapidly indicates a neurologic deficit. In the gait and stance test, a neurologic deficit is indicated by a circular or a zigzag gait, ataxia, abnormal spread of the legs, abnormal body posture, tremor, hyperactivity, lack of exploratory behavior, somnolence, stupor, or catalepsy.
# [5] = test system: pentylenetetrazol (Metrazole) seizure threshold in mice; conditions: cited from earlier work; for amounts of PTZ required to produce the endpoints (in words): mouse, in vivo
# [6] = test system: maximal electroshock seizure (MES) in mice; conditions: mouse, in vivo; cited from earlier work
compound,measurement,setting,value
"CC(Nc1ccc(Cl)c(Cl)c1)c1ccncc1 (single isomer, unassigned; (+)) [Compound 5, (+) N-(3,4-Dichlorophenyl)-1-(4-pyridyl)ethylamine]","P.I. (protective index, TD50/ED50)",[1]; listed as (3) (+) Enantiomer,> 6.6
same,ED50,[1],76.1 mg/kg
same,TD50,[2],> 500 mg/kg
same,ED50,"[3]; Rattus norvegicus, po, MES test, read-out: ED50",32.3 mg/kg
same,% protection (lowest and highest) during 4 hour period,"[3]; rat, MES, listed as (3) (+) Enantiomer",0-100%
same,"P.I. (protective index, TD50/ED50)","[3]; rat, MES",> 15.5
same,TD50,[4],> 500 mg/kg
"CCC(Nc1ccc(Cl)cc1)c1ccncc1 (single isomer, unassigned; (+)) [Compound 7, (+) N-(4-Chlorophenyl)-1-(4-pyridyl)propylamine]","P.I. (protective index, TD50/ED50)",[1]; listed as (4) (+) Enantiomer,2.9
same,ED50,[1],109 mg/kg
same,TD50,[2],322 mg/kg
same,% protection (lowest and highest) during 4 hour period,"[3]; rat, MES, listed as (4) (+) Enantiomer",0-75%
"CCC(Nc1ccc(Cl)c(Cl)c1)c1ccncc1 (single isomer, unassigned; (+)) [Compound 9, (+) N-(3,4-Dichlorophenyl)-1-(4-pyridyl)propylamine]","P.I. (protective index, TD50/ED50)",[1]; listed as (5) (+) Enantiomer,3.0
same,ED50,[1],91.9 mg/kg
same,TD50,[2],279 mg/kg
same,% protection (lowest and highest) during 4 hour period,"[3]; rat, MES, listed as (5) (+) Enantiomer",0-75%
Cc1cccc(C)c1OCC(C)N (centres unmarked) [Mexiletine],seizure threshold (in words),[5]; doses slightly above the MES ED50 in mice,lowers seizure threshold at doses slightly above the MES ED50 in mice
same,MES test activity (in words),[6],potent in the MES test
CCC1(C)CC(=O)NC1=O (centres unmarked) [ethosuximide],amounts of PTZ required to produce the endpoints (in words),[5],increase the amounts of PTZ required to produce the above endpoints
CCC1(c2ccccc2)C(=O)NC(=O)NC1=O [phenobarbital],amounts of PTZ required to produce the endpoints (in words),[5],increase the amounts of PTZ required to produce the above endpoints
CCCC(CCC)C(=O)O [valproic acid],amounts of PTZ required to produce the endpoints (in words),[5],increase the amounts of PTZ required to produce the above endpoints
